Starred links: 1 amine or outer side, 2 acyl side, 3 side chain; linkers in the order of their positions; H or OH if unused. Positions of bridges follow the written chain, without caps; N, C: chain ends. Non-standard residues stand in square brackets, D forms with d. Residues, ends and D or L forms follow the SMILES beside them. *: point of attachment. Bip(4'-NHCO-C6H4-3-CH2COOH) = N[C@@H](Cc1ccc(-c2ccc(NC(=O)c3cccc(CC(=O)O)c3)cc2)cc1)C(=O)O; dArg(Nω-CH2C6H4-3-CH2Gua) = N=C(N)NCc1cccc(CNC(=N)NCCC[C@@H](N)C(=O)O)c1; X21 = N=C(NCCC[C@@H](N[*:1])C(=O)[*:2])NC[C@H](O)[C@@H](O)[C@@H](O)CO; Bip(4'-NH) = O=C([C@H](Cc1ccc(-c2ccc(N[*:3])cc2)cc1)N[*:1])[*:2]; dArg(ω-(3-HO-benzyl)) = N=C(NCCC[C@@H](N)C(=O)O)NCc1cccc(O)c1; Indazole3carbonyl(1-CH2COOH) = O=C(O)Cn1nc(C(=O)*)c2ccccc21; dArg(ω-Bn) = N=C(NCCC[C@@H](N)C(=O)O)NCc1ccccc1; Ala(morpholin-4-yl) = N[C@@H](CN1CCOCC1)C(=O)O; Phe(3-CONH2) = NC(=O)c1cccc(C[C@H](N)C(=O)O)c1; Bip = N[C@@H](Cc1ccc(-c2ccccc2)cc1)C(=O)O; 2Pal = N[C@@H](Cc1ccccn1)C(=O)O; 2Thi = N[C@@H](Cc1cccs1)C(=O)O; Sar = CNCC(=O)O

Sequence of TNFα (P01375 77-233 limits assumed): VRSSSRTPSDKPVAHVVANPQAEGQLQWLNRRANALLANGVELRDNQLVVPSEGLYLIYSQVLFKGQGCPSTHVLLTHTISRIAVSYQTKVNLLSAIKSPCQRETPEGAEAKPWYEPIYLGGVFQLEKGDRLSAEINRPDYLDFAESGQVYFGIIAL

The first assay addresses TNFα (Homo sapiens, UniProt P01375). The assay can be described thus: TNF-Induced HEK-Blue Assay. The assay is classed as cell-based.
Conditions: not given
As for `CC(C)C[C@@H]1NC(=O)[C@H](Cc2cccc(C(N)=O)c2)NC(=O)[C@H](C(C)C)NC(=O)[C@@H]2CCCN2C(=O)[C@H](C(C)C)NC(=O)[C@@H](CCCNC(=N)NCc2cccc(CNC(=N)N)c2)NC(=O)[C@H](CC(=O)O)NC(=O)[C@H](Cc2ccc(O)cc2)NC(=O)CN(C)C(=O)[C@H](Cc2ccc(-c3ccc(NC(=O)c4nn(CC(=O)O)c5ccccc45)cc3)cc2)NC(=O)[C@H](Cc2ccc(-c3ccccc3)cc2)NC(=O)[C@H](CN2CCOCC2)NC(=O)CSC[C@@H](C(=O)NCC(N)=O)NC1=O` [Example 620] ({CH2CO}-[Ala(morpholin-4-yl)][Bip][Bip(4'-NH)](Indazole3carbonyl(1-CH2COOH))[Sar]YD[dArg(Nω-CH2C6H4-3-CH2Gua)]VPV[Phe(3-CONH2)]LCG-NH2; thioether N-13), the IC50 was below 0.05 µM.

Molecule `CC(C)C[C@@H]1NC(=O)[C@H](Cc2cnc[nH]2)NC(=O)[C@H](C(C)C)NC(=O)[C@@H]2CCCN2C(=O)[C@H](C(C)C)NC(=O)[C@@H](CCCNC(=N)NCc2cccc(CNC(=N)N)c2)NC(=O)[C@H](CC(=O)O)NC(=O)[C@H](Cc2ccccn2)NC(=O)CN(C)C(=O)[C@H](Cc2ccc(-c3ccc(NC(=O)c4nn(CC(=O)O)c5ccccc45)cc3)cc2)NC(=O)[C@H](Cc2ccc(-c3ccccc3)cc2)NC(=O)[C@H](CN2CCOCC2)NC(=O)CSC[C@@H](C(=O)NCC(N)=O)NC1=O` [Example 621] ({CH2CO}-[Ala(morpholin-4-yl)][Bip][Bip(4'-NH)](Indazole3carbonyl(1-CH2COOH))[Sar][2Pal]D[dArg(Nω-CH2C6H4-3-CH2Gua)]VPVHLCG-NH2; thioether N-13) came in with an IC50 below 0.05 µM.

Consider `CC(C)C[C@@H]1NC(=O)[C@H](Cc2ccc(O)cc2)NC(=O)[C@H](C(C)C)NC(=O)[C@@H]2CCCN2C(=O)[C@H](C(C)C)NC(=O)[C@@H](CCCNC(=N)NCc2cccc(CNC(=N)N)c2)NC(=O)[C@H](CC(=O)O)NC(=O)[C@@H]2CCCN2C(=O)CN(C)C(=O)[C@H](Cc2ccc(-c3ccc(NC(=O)c4nn(CC(=O)O)c5ccccc45)cc3)cc2)NC(=O)[C@H](Cc2ccc(-c3ccccc3)cc2)NC(=O)[C@H](CN2CCOCC2)NC(=O)CSC[C@@H](C(=O)NCC(N)=O)NC1=O` [Example 622] ({CH2CO}-[Ala(morpholin-4-yl)][Bip][Bip(4'-NH)](Indazole3carbonyl(1-CH2COOH))[Sar]PD[dArg(Nω-CH2C6H4-3-CH2Gua)]VPVYLCG-NH2; thioether N-13), for which the IC50 was below 0.05 µM.

The molecule `CC(C)C[C@@H]1NC(=O)[C@H](Cc2cccs2)NC(=O)[C@H](C(C)C)NC(=O)[C@@H]2CCCN2C(=O)[C@H](C(C)C)NC(=O)[C@@H](CCCNC(=N)NCc2cccc(CNC(=N)N)c2)NC(=O)[C@H](CC(=O)O)NC(=O)[C@H](Cc2ccccn2)NC(=O)CN(C)C(=O)[C@H](Cc2ccc(-c3ccc(NC(=O)c4nn(CC(=O)O)c5ccccc45)cc3)cc2)NC(=O)[C@H](Cc2ccc(-c3ccccc3)cc2)NC(=O)[C@H](CN2CCOCC2)NC(=O)CSC[C@@H](C(=O)NCC(N)=O)NC1=O` [Example 623] ({CH2CO}-[Ala(morpholin-4-yl)][Bip][Bip(4'-NH)](Indazole3carbonyl(1-CH2COOH))[Sar][2Pal]D[dArg(Nω-CH2C6H4-3-CH2Gua)]VPV[2Thi]LCG-NH2; thioether N-13) gave an IC50 below 0.05 µM.

For the molecule `CC(C)C[C@@H]1NC(=O)[C@H](Cc2cnc[nH]2)NC(=O)[C@H](C(C)C)NC(=O)[C@@H]2CCCN2C(=O)[C@H](C(C)C)NC(=O)[C@@H](CCCNC(=N)NCc2cccc(O)c2)NC(=O)[C@H](CC(=O)O)NC(=O)[C@H](Cc2ccccn2)NC(=O)CN(C)C(=O)[C@H](Cc2ccc(-c3ccc(NC(=O)c4nn(CC(=O)O)c5ccccc45)cc3)cc2)NC(=O)[C@H](Cc2ccc(-c3ccccc3)cc2)NC(=O)[C@H](CN2CCOCC2)NC(=O)CSC[C@@H](C(=O)NCC(N)=O)NC1=O` [Example 624] ({CH2CO}-[Ala(morpholin-4-yl)][Bip][Bip(4'-NH)](Indazole3carbonyl(1-CH2COOH))[Sar][2Pal]D[dArg(ω-(3-HO-benzyl))]VPVHLCG-NH2; thioether N-13), the IC50 was below 0.05 µM.

On to `CC(C)C[C@@H]1NC(=O)[C@H](Cc2ccc(O)cc2)NC(=O)[C@H](C(C)C)NC(=O)[C@@H]2CCCN2C(=O)[C@H](C(C)C)NC(=O)[C@@H](CCCNC(=N)NCc2cccc(O)c2)NC(=O)[C@H](CC(=O)O)NC(=O)[C@@H]2CCCN2C(=O)CN(C)C(=O)[C@H](Cc2ccc(-c3ccc(NC(=O)c4nn(CC(=O)O)c5ccccc45)cc3)cc2)NC(=O)[C@H](Cc2ccc(-c3ccccc3)cc2)NC(=O)[C@H](CN2CCOCC2)NC(=O)CSC[C@@H](C(=O)NCC(N)=O)NC1=O` [Example 625] ({CH2CO}-[Ala(morpholin-4-yl)][Bip][Bip(4'-NH)](Indazole3carbonyl(1-CH2COOH))[Sar]PD[dArg(ω-(3-HO-benzyl))]VPVYLCG-NH2; thioether N-13), for which the IC50 was below 0.05 µM.

`CC(C)C[C@@H]1NC(=O)[C@H](Cc2cccs2)NC(=O)[C@H](C(C)C)NC(=O)[C@@H]2CCCN2C(=O)[C@H](C(C)C)NC(=O)[C@@H](CCCNC(=N)NCc2cccc(O)c2)NC(=O)[C@H](CC(=O)O)NC(=O)[C@H](Cc2ccccn2)NC(=O)CN(C)C(=O)[C@H](Cc2ccc(-c3ccc(NC(=O)c4nn(CC(=O)O)c5ccccc45)cc3)cc2)NC(=O)[C@H](Cc2ccc(-c3ccccc3)cc2)NC(=O)[C@H](CN2CCOCC2)NC(=O)CSC[C@@H](C(=O)NCC(N)=O)NC1=O` [Example 626] ({CH2CO}-[Ala(morpholin-4-yl)][Bip][Bip(4'-NH)](Indazole3carbonyl(1-CH2COOH))[Sar][2Pal]D[dArg(ω-(3-HO-benzyl))]VPV[2Thi]LCG-NH2; thioether N-13) yielded an IC50 of 0.05 to 0.2 µM.

Consider `CC(C)C[C@@H]1NC(=O)[C@H](Cc2cnc[nH]2)NC(=O)[C@H](C(C)C)NC(=O)[C@@H]2CCCN2C(=O)[C@H](C(C)C)NC(=O)[C@@H](CCCNC(=N)NCc2ccccc2)NC(=O)[C@H](CC(=O)O)NC(=O)[C@H](Cc2ccccn2)NC(=O)CN(C)C(=O)[C@H](Cc2ccc(-c3ccc(NC(=O)c4nn(CC(=O)O)c5ccccc45)cc3)cc2)NC(=O)[C@H](Cc2ccc(-c3ccccc3)cc2)NC(=O)[C@H](CN2CCOCC2)NC(=O)CSC[C@@H](C(=O)NCC(N)=O)NC1=O` [Example 628] ({CH2CO}-[Ala(morpholin-4-yl)][Bip][Bip(4'-NH)](Indazole3carbonyl(1-CH2COOH))[Sar][2Pal]D[dArg(ω-Bn)]VPVHLCG-NH2; thioether N-13), for which the IC50 was below 0.05 µM.

The same assay, now with this note: HEK-Blue-CD40L cells, NF-kB-driven secreted alkaline phosphatase reporter; TNFα 0.5 ng/ml; 18 h; read-out: TNF induced HEK-Blue assay IC50 value.
For the molecule `CC(C)C[C@@H]1NC(=O)[C@H](CCCNC(=N)N)NC(=O)[C@H](C(C)C)NC(=O)[C@@H]2CCCN2C(=O)[C@H](C(C)C)NC(=O)[C@@H](CCCNC(=N)NC[C@H](O)[C@@H](O)[C@@H](O)CO)NC(=O)[C@H](CC(=O)O)NC(=O)[C@@H]2CCCN2C(=O)CN(C)C(=O)[C@H](Cc2ccc(-c3ccc(NC(=O)c4cccc(CC(=O)O)c4)cc3)cc2)NC(=O)[C@H](Cc2ccc(-c3ccccc3)cc2)NC(=O)[C@H](CN2CCOCC2)NC(=O)CSC[C@@H](C(=O)NCC(N)=O)NC1=O` [Example 627] ({CH2CO}-[Ala(morpholin-4-yl)][Bip][Bip(4'-NHCO-C6H4-3-CH2COOH)][Sar]PD[X21]VPVRLCG-NH2; thioether N-13), the IC50 lay in the range of 0.05 to 0.2 µM.

Broadly, the IC50 is the concentration needed to halve the response being measured.

The values are drawn from patent US20250145665A1, “MACROCYCLIC PEPTIDES USEFUL AS MODULATORS OF TNF ALPHA” (Bristol-Myers Squibb Company, priority 2023, published 2025).
